According to patent US9738634B2, “Heterocyclic amide compound and herbicide” (SYNGENTA PARTICIPATIONS AG, priority 2013, dated 2017):

Key:
Type in all cases: in vivo
Conditions in all cases: treatment dosage 320 g/ha
soybean [1] = assay: Test Example 3: soil treatment, effect on crop; d: soybean
In short: (§1)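 Crop and weed responses were judged three weeks after a uniform surface spray of the water-diluted emulsion at the given g/ha rate. Seeds sat beneath about 1.5 cm of sterilized diluvial soil, and boxes stood in a greenhouse at 25 to 30° C.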

oval-leafed pondweed [2] = assay: Test Example 1: weedkilling efficacy, preemergent weed treatment in the submerged state; C: oval-leafed pondweed
In short: (§2)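 Pots of alluvial soil flooded 4 cm deep, sown with barnyard grass, bulrush and oval-leafed pondweed and transplanted with 2.5-leaf rice. Emulsified compound applied to the water surface on sowing day at stated g/ha; greenhouse 25–30 °C, effects assessed 3 weeks after treatment.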

wheat [3] = assay: Test Example 4: foliar treatment, effect on crop; e: wheat
In short: (§3)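 Seeds are spot-sown into sterilized diluvial soil and covered with about 1.5 cm of soil. After 14 days' greenhouse growth at 25 to 30° C, plants are sprayed on stems and leaves with diluted emulsion at the stated g/ha rate, then scored at 3 weeks.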

directly sown rice [4] = assay: Test Example 3: soil treatment, effect on crop; b: directly sown rice
In short: as §1

bulrush [5] = assay: Test Example 2: weedkilling efficacy, growth period weed treatment in the submerged state; B: bulrush
In short: (§4)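 Barnyard grass, bulrush and oval-leafed pondweed sown in alluvial soil under 4 cm flooding, greenhouse 25 to 30° C. At 1-2 leaf stage, water-diluted emulsion applied to the water surface at stated g/ha dosages; effects scored 3 weeks later.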

Italian ryegrass [6] = assay: Test Example 4: weedkilling efficacy by foliar treatment; I: Italian ryegrass
In short: as §3

barnyard grass [7] = assay: Test Example 3: weedkilling efficacy through soil treatment; F: barnyard grass
In short: as §1

oval-leafed pondweed [8] = assay: Test Example 2: weedkilling efficacy, growth period weed treatment in the submerged state; C: oval-leafed pondweed
In short: as §4

transplanted rice = assay: Test Example 1: preemergent weed treatment in the submerged state, effect on crop; a: transplanted rice
In short: as §2

barnyard grass [9] = assay: Test Example 1: weedkilling efficacy, preemergent weed treatment in the submerged state; A: barnyard grass
In short: as §2

Indian mallow [10] = assay: Test Example 3: weedkilling efficacy through soil treatment; K: Indian mallow
In short: as §1

wild oat [11] = assay: Test Example 3: weedkilling efficacy through soil treatment; G: wild oat
In short: as §1

redroot pigweed [12] = assay: Test Example 3: weedkilling efficacy through soil treatment; L: redroot pigweed
In short: as §1

beet [13] = assay: Test Example 4: foliar treatment, effect on crop; f: beet
In short: as §3

black-grass [14] = assay: Test Example 4: weedkilling efficacy by foliar treatment; H: black-grass
In short: as §3

bulrush [15] = assay: Test Example 1: weedkilling efficacy, preemergent weed treatment in the submerged state; B: bulrush
In short: as §2

corn [16] = assay: Test Example 3: soil treatment, effect on crop; c: corn
In short: as §1

birds-eye speedwell [17] = assay: Test Example 3: weedkilling efficacy through soil treatment; p: birds-eye speedwell
In short: as §1

barnyard grass [18] = assay: Test Example 4: weedkilling efficacy by foliar treatment; F: barnyard grass
In short: as §3

chickweed [19] = assay: Test Example 3: weedkilling efficacy through soil treatment; N: chickweed
In short: as §1

common wind-grass [20] = assay: Test Example 3: weedkilling efficacy through soil treatment; J: common wind-grass
In short: as §1

barnyard grass [21] = assay: Test Example 2: weedkilling efficacy, growth period weed treatment in the submerged state; A: barnyard grass
In short: as §4

crabgrass [22] = assay: Test Example 3: weedkilling efficacy through soil treatment; D: crabgrass
In short: as §1

soybean [23] = assay: Test Example 4: foliar treatment, effect on crop; d: soybean
In short: as §3

beet [24] = assay: Test Example 3: soil treatment, effect on crop; f: beet
In short: as §1

fig-leafed goosefoot = assay: Test Example 3: weedkilling efficacy through soil treatment; M: fig-leafed goosefoot
In short: as §1

wheat [25] = assay: Test Example 3: soil treatment, effect on crop; e: wheat
In short: as §1

green foxtail [26] = assay: Test Example 4: weedkilling efficacy by foliar treatment; E: green foxtail
In short: as §3

directly sown rice [27] = assay: Test Example 4: foliar treatment, effect on crop; b: directly sown rice
In short: as §3

birds-eye speedwell [28] = assay: Test Example 4: weedkilling efficacy by foliar treatment; p: birds-eye speedwell
In short: as §3

Italian ryegrass [29] = assay: Test Example 3: weedkilling efficacy through soil treatment; I: Italian ryegrass
In short: as §1

chickweed [30] = assay: Test Example 4: weedkilling efficacy by foliar treatment; N: chickweed
In short: as §3

green foxtail [31] = assay: Test Example 3: weedkilling efficacy through soil treatment; E: green foxtail
In short: as §1

redroot pigweed [32] = assay: Test Example 4: weedkilling efficacy by foliar treatment; L: redroot pigweed
In short: as §3

common wind-grass [33] = assay: Test Example 4: weedkilling efficacy by foliar treatment; J: common wind-grass
In short: as §3

Indian mallow [34] = assay: Test Example 4: weedkilling efficacy by foliar treatment; K: Indian mallow
In short: as §3

catchweed [35] = assay: Test Example 3: weedkilling efficacy through soil treatment; O: catchweed
In short: as §1

corn [36] = assay: Test Example 4: foliar treatment, effect on crop; c: corn
In short: as §3

crabgrass [37] = assay: Test Example 4: weedkilling efficacy by foliar treatment; D: crabgrass
In short: as §3

rapeseed [38] = assay: Test Example 4: foliar treatment, effect on crop; g: rapeseed
In short: as §3

catchweed [39] = assay: Test Example 4: weedkilling efficacy by foliar treatment; O: catchweed
In short: as §3

rapeseed [40] = assay: Test Example 3: soil treatment, effect on crop; g: rapeseed
In short: as §1

wild oat [41] = assay: Test Example 4: weedkilling efficacy by foliar treatment; G: wild oat
In short: as §3

black-grass [42] = assay: Test Example 3: weedkilling efficacy through soil treatment; H: black-grass
In short: as §1

Structure (SMILES): COc1cc(Cl)cc(NC(=O)C(C)(C)N2COC(C)=C(c3ccccc3)C2=O)n1 [B-2-46]
- d (soybean) effect on crop grade (soybean [1]): 0 (weed kill ratio 5% or less (practically no effect))
- C (oval-leafed pondweed) weedkilling efficacy grade (oval-leafed pondweed [2]): 5 (weed kill ratio 90% or more, (practically complete withering))
- e (wheat) effect on crop grade (wheat [3]): 0 (weed kill ratio 5% or less (practically no effect))
- b (directly sown rice) effect on crop grade (directly sown rice [4]): 4 (weed kill ratio 70% or more, less than 90%)
- B (bulrush) weedkilling efficacy grade (bulrush [5]): 5 (weed kill ratio 90% or more, (practically complete withering))
- I (Italian ryegrass) weedkilling efficacy grade (Italian ryegrass [6]): 4 (weed kill ratio 70% or more, less than 90%)
- F (barnyard grass) weedkilling efficacy grade (barnyard grass [7]): 5 (weed kill ratio 90% or more, (practically complete withering))
- C (oval-leafed pondweed) weedkilling efficacy grade (oval-leafed pondweed [8]): 5 (weed kill ratio 90% or more, (practically complete withering))
- a (transplanted rice) effect on crop grade (transplanted rice): 0 (weed kill ratio 5% or less (practically no effect))
- A (barnyard grass) weedkilling efficacy grade (barnyard grass [9]): 5 (weed kill ratio 90% or more, (practically complete withering))
- K (Indian mallow) weedkilling efficacy grade (Indian mallow [10]): 3 (weed kill ratio 40% or more, less than 70%)
- G (wild oat) weedkilling efficacy grade (wild oat [11]): 3 (weed kill ratio 40% or more, less than 70%)
- L (redroot pigweed) weedkilling efficacy grade (redroot pigweed [12]): 4 (weed kill ratio 70% or more, less than 90%)
- f (beet) effect on crop grade (beet [13]): 4 (weed kill ratio 70% or more, less than 90%)
- H (black-grass) weedkilling efficacy grade (black-grass [14]): 4 (weed kill ratio 70% or more, less than 90%)
- B (bulrush) weedkilling efficacy grade (bulrush [15]): 5 (weed kill ratio 90% or more, (practically complete withering))
- c (corn) effect on crop grade (corn [16]): 1 (weed kill ratio 5% or more, less than 20%)
- P (birds-eye speedwell) weedkilling efficacy grade (birds-eye speedwell [17]): 5 (weed kill ratio 90% or more, (practically complete withering))
- F (barnyard grass) weedkilling efficacy grade (barnyard grass [18]): 4 (weed kill ratio 70% or more, less than 90%)
- N (chickweed) weedkilling efficacy grade (chickweed [19]): 4 (weed kill ratio 70% or more, less than 90%)
- J (common wind-grass) weedkilling efficacy grade (common wind-grass [20]): 5 (weed kill ratio 90% or more, (practically complete withering))
- A (barnyard grass) weedkilling efficacy grade (barnyard grass [21]): 5 (weed kill ratio 90% or more, (practically complete withering))
- D (crabgrass) weedkilling efficacy grade (crabgrass [22]): 5 (weed kill ratio 90% or more, (practically complete withering))
- d (soybean) effect on crop grade (soybean [23]): 0 (weed kill ratio 5% or less (practically no effect))
- f (beet) effect on crop grade (beet [24]): 4 (weed kill ratio 70% or more, less than 90%)
- M (fig-leafed goosefoot) weedkilling efficacy grade (fig-leafed goosefoot): 4 (weed kill ratio 70% or more, less than 90%)
- e (wheat) effect on crop grade (wheat [25]): 0 (weed kill ratio 5% or less (practically no effect))
- E (green foxtail) weedkilling efficacy grade (green foxtail [26]): 5 (weed kill ratio 90% or more, (practically complete withering))
- b (directly sown rice) effect on crop grade (directly sown rice [27]): 3 (weed kill ratio 40% or more, less than 70%)
- P (birds-eye speedwell) weedkilling efficacy grade (birds-eye speedwell [28]): 4 (weed kill ratio 70% or more, less than 90%)
- I (Italian ryegrass) weedkilling efficacy grade (Italian ryegrass [29]): 5 (weed kill ratio 90% or more, (practically complete withering))
- N (chickweed) weedkilling efficacy grade (chickweed [30]): 2 (weed kill ratio 20% or more, less than 40%)
- E (green foxtail) weedkilling efficacy grade (green foxtail [31]): 5 (weed kill ratio 90% or more, (practically complete withering))
- L (redroot pigweed) weedkilling efficacy grade (redroot pigweed [32]): 0 (weed kill ratio 5% or less (practically no effect))
- J (common wind-grass) weedkilling efficacy grade (common wind-grass [33]): 5 (weed kill ratio 90% or more, (practically complete withering))
- K (Indian mallow) weedkilling efficacy grade (Indian mallow [34]): 3 (weed kill ratio 40% or more, less than 70%)
- O (catchweed) weedkilling efficacy grade (catchweed [35]): 4 (weed kill ratio 70% or more, less than 90%)
- c (corn) effect on crop grade (corn [36]): 1 (weed kill ratio 5% or more, less than 20%)
- D (crabgrass) weedkilling efficacy grade (crabgrass [37]): 4 (weed kill ratio 70% or more, less than 90%)
- g (rapeseed) effect on crop grade (rapeseed [38]): 4 (weed kill ratio 70% or more, less than 90%)
- O (catchweed) weedkilling efficacy grade (catchweed [39]): 4 (weed kill ratio 70% or more, less than 90%)
- g (rapeseed) effect on crop grade (rapeseed [40]): 4 (weed kill ratio 70% or more, less than 90%)
- G (wild oat) weedkilling efficacy grade (wild oat [41]): 3 (weed kill ratio 40% or more, less than 70%)
- H (black-grass) weedkilling efficacy grade (black-grass [42]): 5 (weed kill ratio 90% or more, (practically complete withering))
